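The compound was tested at five concentrations on cells cultured in 96-well plates, with a 48-hour exposure period. At the GI50, growth is halved.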 Activity calls are given as the source filed them. Cut-off read from the data, not from the text of the source: active = GI50 up to about 1.1 µM and inactive = higher.
What was measured:
Assay in all cases: inhibition of tumour cell growth, NCI panel, 48 h
HOP-62 = test system: HOP-62
U-251 = test system: U-251
IGROV-1 = test system: IGROV-1
UACC-62 = test system: UACC-62
SW-620 = test system: SW-620
786-0 = test system: 786-0
DU-145 = test system: DU-145
UACC-257 = test system: UACC-257
SN12C = test system: SN12C
A549 = test system: A549
MDA-MB-435 = test system: MDA-MB-435
KM12 = test system: KM12
SF-539 = test system: SF-539
SF-295 = test system: SF-295
LOX IMVI = test system: LOX IMVI
HOP-92 = test system: HOP-92
CAKI-1 = test system: CAKI-1
HL-60 = test system: HL-60
NCI-H522 = test system: NCI-H522
PC-3 = test system: PC-3

Measured: GI50

c1ccc([P+](CCNCCNCC[P+](c2ccccc2)(c2ccccc2)c2ccccc2)(c2ccccc2)c2ccccc2)cc1
inactive: HOP-62 > 100 µM | U-251 > 100 µM | IGROV-1 > 100 µM | UACC-62 > 100 µM | SW-620 > 100 µM | 786-0 > 100 µM | DU-145 > 100 µM | UACC-257 > 100 µM | SN12C > 100 µM | A549 > 100 µM | MDA-MB-435 > 100 µM | KM12 > 100 µM | SF-539 > 100 µM | SF-295 > 100 µM

CCOC(=O)[C@@H]1ON2O[C@H](OC3CCCC3(c3ccccc3)c3ccccc3)C[C@H]3OC(=O)[C@@H]1C32 (some centres not stated)
inactive: LOX IMVI 27.2 µM | HOP-62 > 100 µM | U-251 52.4 µM | HOP-92 95.7 µM | CAKI-1 22.9 µM | IGROV-1 33.7 µM | UACC-62 27 µM | SW-620 28.2 µM | 786-0 78 µM | HL-60 22.2 µM | DU-145 25.5 µM | UACC-257 52.4 µM | NCI-H522 36.4 µM | SN12C 97.5 µM | A549 27.8 µM | MDA-MB-435 30.1 µM | KM12 27.9 µM | SF-539 65 µM | SF-295 > 100 µM

COC(=O)/C=C/c1cc(OC)c(OC)c(OC)c1
inactive: LOX IMVI > 100 µM | HOP-62 > 100 µM | HOP-92 > 100 µM | CAKI-1 > 100 µM | IGROV-1 > 100 µM | UACC-62 78.3 µM | SW-620 > 100 µM | 786-0 > 100 µM | HL-60 > 100 µM | UACC-257 > 100 µM | NCI-H522 46.5 µM | SN12C > 100 µM | A549 > 100 µM | KM12 > 100 µM | SF-539 > 100 µM | SF-295 > 100 µM

C1OC1CO[C@@H]1CO[C@H]2[C@@H]1OC[C@H]2OCC1CO1 (some centres not stated)
inactive: LOX IMVI > 100 µM | HOP-62 > 100 µM | U-251 > 100 µM | HOP-92 > 100 µM | CAKI-1 67.9 µM | IGROV-1 > 100 µM | UACC-62 > 100 µM | SW-620 > 100 µM | 786-0 > 100 µM | HL-60 82.8 µM | UACC-257 > 100 µM | NCI-H522 > 100 µM | SN12C > 100 µM | A549 > 100 µM | KM12 > 100 µM | SF-539 > 100 µM | SF-295 > 100 µM

O=C(CC(=O)c1cccc2ccccc12)C(=O)NC1C2CC3CC(C2)CC1C3 (configuration not stated)
inactive: LOX IMVI > 100 µM | HOP-62 > 100 µM | U-251 > 100 µM | HOP-92 34.4 µM | CAKI-1 > 100 µM | IGROV-1 > 100 µM | UACC-62 > 100 µM | SW-620 > 100 µM | 786-0 > 100 µM | HL-60 77.1 µM | UACC-257 > 100 µM | NCI-H522 > 100 µM | SN12C > 100 µM | A549 > 100 µM | KM12 > 100 µM | SF-539 > 100 µM | SF-295 > 100 µM

C1=CC(N(c2ccccc2)C2C=CCCC2)CCC1 (configuration not stated)
inactive: LOX IMVI > 100 µM | U-251 > 100 µM | HOP-92 35.8 µM | CAKI-1 > 100 µM | IGROV-1 > 100 µM | UACC-62 > 100 µM | SW-620 > 100 µM | 786-0 > 100 µM | HL-60 69.8 µM | NCI-H522 67 µM | SN12C > 100 µM | A549 > 100 µM | SF-539 > 100 µM | SF-295 85.7 µM

c1ccc(SC23C4C5C6C4C2C6C53)nc1 (configuration not stated)
inactive: LOX IMVI > 100 µM | HOP-62 > 100 µM | U-251 > 100 µM | HOP-92 > 100 µM | CAKI-1 > 100 µM | IGROV-1 > 100 µM | UACC-62 > 100 µM | SW-620 > 100 µM | 786-0 > 100 µM | HL-60 11.5 µM | UACC-257 > 100 µM | NCI-H522 > 100 µM | SN12C > 100 µM | A549 > 100 µM | KM12 > 100 µM | SF-539 > 75 µM | SF-295 > 100 µM

COC(=O)C1=C(C)N(NC(N)=O)C2(N)N(NC(N)=O)C(C)=C(C(=O)OC)C12C(=O)OC (configuration not stated)
inactive: LOX IMVI > 100 µM | HOP-62 > 100 µM | U-251 > 100 µM | HOP-92 > 100 µM | CAKI-1 > 100 µM | IGROV-1 > 100 µM | UACC-62 > 100 µM | SW-620 > 100 µM | 786-0 > 100 µM | HL-60 > 100 µM | UACC-257 > 100 µM | NCI-H522 > 100 µM | SN12C > 100 µM | A549 > 100 µM | KM12 > 10 µM | SF-539 > 100 µM | SF-295 > 10 µM

C=C(C)[C@@]1(OC(=O)c2cc([N+](=O)[O-])cc([N+](=O)[O-])c2)C[C@@H]2CCCC[C@@H]21
inactive: LOX IMVI > 100 µM | HOP-62 62.4 µM | U-251 > 100 µM | CAKI-1 > 100 µM | IGROV-1 > 100 µM | UACC-62 > 100 µM | SW-620 > 100 µM | PC-3 > 100 µM | 786-0 > 100 µM | HL-60 95.1 µM | DU-145 > 100 µM | UACC-257 > 100 µM | NCI-H522 > 100 µM | SN12C > 100 µM | A549 39.4 µM | KM12 > 100 µM | SF-539 > 100 µM | SF-295 72.9 µM

O=C(/C=C/c1cc(Cl)cc(Cl)c1O)c1cccc(O)c1
inactive: LOX IMVI 12.6 µM | HOP-62 74 µM | U-251 25.5 µM | HOP-92 27.8 µM | CAKI-1 > 100 µM | IGROV-1 42.2 µM | UACC-62 29.8 µM | SW-620 54.5 µM | 786-0 70.5 µM | HL-60 29.1 µM | UACC-257 > 100 µM | NCI-H522 > 100 µM | SN12C 13.7 µM | A549 > 100 µM | KM12 54 µM | SF-539 28.2 µM | SF-295 14.8 µM

Nc1nc2ncn(CC(O)CO)c2c(=S)[nH]1 (configuration not stated)
inactive: LOX IMVI > 100 µM | HOP-62 > 100 µM | U-251 > 100 µM | HOP-92 > 100 µM | CAKI-1 > 100 µM | IGROV-1 > 100 µM | UACC-62 > 100 µM | SW-620 > 100 µM | 786-0 > 100 µM | HL-60 > 100 µM | UACC-257 > 100 µM | NCI-H522 > 100 µM | SN12C > 100 µM | A549 > 100 µM | KM12 > 100 µM | SF-539 > 100 µM | SF-295 > 100 µM

Cc1ccc(C2(O)CC(c3ccc([N+](=O)[O-])o3)=NN2C(=O)COc2ccc(Cl)cc2)cc1 (configuration not stated)
inactive: LOX IMVI 4.59 µM | HOP-62 12.3 µM | U-251 2.28 µM | HOP-92 7.93 µM | CAKI-1 12.6 µM | IGROV-1 11.4 µM | UACC-62 3.55 µM | SW-620 3.12 µM | 786-0 4.45 µM | HL-60 1.75 µM | UACC-257 4.91 µM | NCI-H522 9.04 µM | SN12C 5.18 µM | A549 7.29 µM | KM12 4.66 µM | SF-539 10.2 µM | SF-295 10.6 µM

O=C(O)CCc1ccc2c(c1)CC1(Cc3ccccc3C1)C2
inactive: LOX IMVI > 100 µM | HOP-62 > 100 µM | U-251 > 100 µM | HOP-92 > 100 µM | IGROV-1 > 100 µM | UACC-62 > 100 µM | PC-3 > 100 µM | 786-0 > 100 µM | UACC-257 > 100 µM | NCI-H522 > 100 µM | SN12C > 100 µM | A549 > 100 µM | MDA-MB-435 > 100 µM | KM12 > 100 µM | SF-539 > 100 µM | SF-295 > 100 µM

COc1cc(C=O)c(-c2cc3c(cc2C2(C)OCCS2)OCO3)c(OC)c1OC (configuration not stated)
inactive: LOX IMVI 9.12 µM | HOP-62 15.5 µM | U-251 15.5 µM | HOP-92 14.8 µM | CAKI-1 11.6 µM | IGROV-1 28.2 µM | UACC-62 12.6 µM | SW-620 7.94 µM | 786-0 7.4 µM | HL-60 8.07 µM | UACC-257 8.83 µM | NCI-H522 6.08 µM | SN12C 13.5 µM | A549 8.71 µM | KM12 9.53 µM | SF-539 5.85 µM | SF-295 13.3 µM

COc1ccc(C2S/C(=C\c3ccc([N+](=O)[O-])cc3)C(=O)N2NC(=O)Cc2ccccc2)cc1 (configuration not stated)
inactive: LOX IMVI > 100 µM | HOP-62 > 100 µM | U-251 79.3 µM | HOP-92 > 100 µM | CAKI-1 > 100 µM | IGROV-1 > 100 µM | UACC-62 85.9 µM | SW-620 > 100 µM | 786-0 > 100 µM | HL-60 92.9 µM | UACC-257 87.5 µM | NCI-H522 > 100 µM | SN12C > 100 µM | A549 > 100 µM | KM12 > 100 µM | SF-539 > 100 µM | SF-295 > 100 µM

O=c1oc2ccccc2n1CCN1CCCCC1
inactive: LOX IMVI > 100 µM | HOP-62 > 100 µM | U-251 > 100 µM | CAKI-1 > 100 µM | IGROV-1 > 100 µM | UACC-62 > 100 µM | SW-620 > 100 µM | PC-3 > 100 µM | 786-0 > 100 µM | HL-60 > 100 µM | DU-145 > 100 µM | UACC-257 > 100 µM | SN12C > 100 µM | MDA-MB-435 > 100 µM | KM12 > 100 µM | SF-539 > 100 µM | SF-295 > 100 µM

Reference: ChEMBL document CHEMBL1201862, “PubChem BioAssay data set” (2004)
